In patent US8188059B2, “Compounds and methods for modulating expression of GCGR” (Isis Pharmaceuticals, Inc., priority 2006, dated 2012):
Strand notation (5' to 3'): a small letter for the sugar, then the base; units joined by * are phosphorothioate-linked, units joined directly phosphodiester-linked; [ ] holds rarer units or linkages, { } end groups; capitals alone tell only the bases. e = 2'-O-(2-methoxyethyl) (MOE); [5mC] = 5-methylcytosine; d = 2'-deoxy (DNA)

How the values were obtained:
monkey GCGR mRNA = experiment: Antisense inhibition of GCGR in primary monkey hepatocytes, 25-200 nM (Example 21, Table 80); format: cell-based; settings: relative to untreated control cells
Protocol: Additional short antisense compounds targeted to a GCGR nucleic acid were tested for their effects on monkey GCGR mRNA in vitro. Cultured primary monkey hepatocytes were treated as described herein with 25, 50, 100 or 200 nM of short antisense compound. After the treatment period, RNA was isolated from the cells and GCGR mRNA levels were measured by quantitative real-time PCR, as described herein. GCGR mRNA levels were adjusted according to total RNA content as measured by RIBOGREEN®. Results are presented in Table 80 as percent reduction in GCGR mRNA, relative to untreated control cells.

GCGR mRNA = experiment: Antisense inhibition of GCGR in HepG2 cells, 25-200 nM (Example 21, Table 79); format: cell-based, human; settings: HepG2 cells, relative to untreated control cells
Protocol: Short antisense compounds targeted to a GCGR nucleic acid were tested for their effects on GCGR mRNA in vitro.
Cultured HepG2 cells at a density of 10000 cells per well in a 96-well plate were treated as described herein with 25, 50, 100 or 200 nM of antisense oligonucleotide. After the treatment period, RNA was isolated from the cells and GCGR mRNA levels were measured by quantitative real-time PCR, as described herein. GCGR mRNA levels were adjusted according to total RNA content as measured by RIBOGREEN®. Results are presented as percent reduction in GCGR mRNA, relative to untreated control cells.

PTP1B mRNA [1] = experiment: Antisense inhibition of human PTP1B in HuVEC cells at 3 nM (Example 23, Table 84); format: cell-based
Protocol: Short antisense compounds targeted to a PTP1B nucleic acid were tested for their effects on PTP1B mRNA in vitro. Cultured HuVEC cells at a density of 5000 cells per well in a 96-well plate were treated as described herein with 3 nM of short antisense compound. After the treatment period, RNA was isolated from the cells and PTP1B mRNA levels were measured by quantitative real-time PCR, as described herein. PTP1B mRNA levels were adjusted according to total RNA content as measured by RIBOGREEN®. Results are presented as percent inhibition of PTP1B (% Inhib), relative to untreated control cells.

PTP1B mRNA [2] = experiment: Antisense inhibition of human PTP1B in HepG2 cells at 25 nM (Example 24, Table 85); format: cell-based
Protocol: Short antisense compounds targeted to a PTP1B nucleic acid were tested for their effects on PTP1B mRNA in vitro. Cultured HepG2 cells at a density of 10000 cells per well in a 96-well plate were treated with 25 nM of antisense oligonucleotide. After the treatment period, RNA was isolated from the cells and PTP1B mRNA levels were measured by quantitative real-time PCR, as described herein. PTP1B mRNA levels were adjusted according to total RNA content as measured by RIBOGREEN®. Results are presented as percent inhibition (% Ihib) of PTP1B, relative to untreated control cells.

Substance	percent reduction in GCGR mRNA (monkey GCGR mRNA; 25 nM)	percent reduction in GCGR mRNA (monkey GCGR mRNA; 50 nM)	percent reduction in GCGR mRNA (monkey GCGR mRNA; 100 nM)	percent reduction in GCGR mRNA (monkey GCGR mRNA; 200 nM)	percent reduction in GCGR mRNA (GCGR mRNA; 25 nM)	percent reduction in GCGR mRNA (GCGR mRNA; 50 nM)	percent reduction in GCGR mRNA (GCGR mRNA; 100 nM)	percent reduction in GCGR mRNA (GCGR mRNA; 200 nM)	% Inhib (PTP1B mRNA) (PTP1B mRNA [1]) [%]	% Inhib (PTP1B mRNA) (PTP1B mRNA [2]) [%]
327161 (antisense eA*eG*e[5mC]*dT*dG*d[5mC]*dT*dG*dT*dA*d[5mC]*eA*eT*e[5mC]) [compound 327161]	−19	−33	−55	−54	−36	−30	−33	−64		
404137 (antisense e[5mC]*eA*dG*dT*dG*dT*dG*d[5mC]*dA*d[5mC]*dA*d[5mC]*eA*eG) [compound 404137]									76	71
404138 (antisense e[5mC]*eT*d[5mC]*dA*dG*dT*dG*dT*dG*d[5mC]*dA*d[5mC]*eA*e[5mC]) [compound 404138]									76	86
404139 (antisense eG*eT*dG*d[5mC]*dA*d[5mC]*dA*d[5mC]*dA*dG*d[5mC]*dT*eG*eA) [compound 404139]									80	45
